{
  "source": "patent US11628160B2",
  "about": "“Compositions and methods for treating brain injury” (Azevan Pharmaceuticals, Inc., priority 2017, dated 2023)",
  "target": "T1, human V1a receptor (Homo sapiens, UniProt P37288)",
  "T1 construct": "host or cells: CHO cells",
  "T1 sequence (P37288 whole entry)": "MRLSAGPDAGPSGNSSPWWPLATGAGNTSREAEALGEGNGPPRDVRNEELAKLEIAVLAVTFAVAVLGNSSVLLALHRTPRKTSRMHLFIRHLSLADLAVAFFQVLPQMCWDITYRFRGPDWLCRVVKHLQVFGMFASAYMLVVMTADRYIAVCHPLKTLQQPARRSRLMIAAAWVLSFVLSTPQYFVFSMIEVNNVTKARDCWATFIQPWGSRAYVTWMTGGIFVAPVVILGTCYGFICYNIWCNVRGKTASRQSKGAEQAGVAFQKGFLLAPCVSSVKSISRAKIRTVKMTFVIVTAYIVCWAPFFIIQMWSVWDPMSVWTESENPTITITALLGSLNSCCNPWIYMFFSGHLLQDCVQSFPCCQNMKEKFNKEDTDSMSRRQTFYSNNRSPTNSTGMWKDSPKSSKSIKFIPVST",
  "assay": "Human vasopressin V1a receptor binding assay",
  "settings": "hV1a CHO cell line, competition with 1 nM 3H-AVP; for IC50: read-out: V1a Binding Affinity IC50; for Ki: read-out: V1a Ki",
  "description": "EXAMPLE. Human vasopressin V1a receptor binding assay. A cell line expressing the human V1a receptor in CHO cells (henceforth referred to as the hV1a cell line) was obtained from Dr. Michael Brownstein, NIMH, Bethesda, Md., USA. The hV1a cDNA sequence is described by Thibonnier et al., Journal of Biological Chemistry, 269, 3304-3310 (1994), and the expression method was the same as described by Morel et al. (1992). The hV1a cell line was grown in alpha-MEM with 10% fetal bovine serum and 250 ug/ml G418 (Gibco, Grand Island, N.Y., USA). For competitive binding assay, hV1a cells were plated into 6-well culture plate at 1:10 dilution from a confluency flask, and maintained in culture for at least two days. Culture medium was then removed, cells were washed with 2 ml binding buffer (25 mM Hepes, 0.25% BSA, 1×DMEM, PH=7.0). To each well, 990 μl binding buffer containing 1 nM 3H-AVP was added, and followed by 10 μl series diluted Example compounds dissolved in DMSO. […] 100 nM cold AVP (Sigma) was used to assess non-specific binding. Cells were incubated for 45 minutes at 37° C., assay mixture was removed and each well was washed three times with PBS (pH=7.4). 1 ml 2% SDS was added per well and plates were let sit for 30 minutes. The whole content in a well was transferred to a scintillation vial. Each well was rinsed with 0.5 ml PBS which was then added to the corresponding vial. Scintillation fluid (Ecoscint, National Diagnostics, Atlanta, Ga.) was then added at 3 ml per vial. Samples were counted in a liquid scintillation counter (Beckman LS3801). IC50 values were calculated by Prism Curve fitting software.\nAll of the alkanedioic esters and amides exemplified in the foregoing examples dissolved in DMSO were tested in this assay. Binding curves were generated according to methods described by Thibonnier et al. (1994). [^3H]-AVP was added to the hV1a cell cultures followed by 10-fold dilutions of each test compound.",
  "data": [
    {"compound": "O=C(NC1CCCc2ccccc21)C(CCC(=O)N1CCN(C2CCCCC2)CC1)N1C(=O)C(N2C(=O)OCC2c2ccccc2)C1C=Cc1cccc(F)c1", "note": "(centres unmarked) [Example 245]", "values": [
      {"measurement": "IC50", "value": 1.1, "unit": "nM"},
      {"measurement": "Ki", "value": 0.68, "unit": "nM"}
    ]},
    {"compound": "Cc1ccc(CNC(=O)C(CCC(=O)N2CCN(C3CCCCC3)CC2)N2C(=O)C(N3C(=O)OCC3c3ccccc3)C2C=Cc2ccccc2)o1", "note": "(centres unmarked) [Example 212]", "values": [
      {"measurement": "IC50", "value": 0.95, "unit": "nM"},
      {"measurement": "Ki", "value": 0.58, "unit": "nM"}
    ]},
    {"compound": "COc1cccc(C=CC2C(N3C(=O)OCC3c3ccccc3)C(=O)N2C(CCC(=O)N2CCN(C3CCCCC3)CC2)C(=O)NC2CCCc3ccccc32)c1", "note": "(centres unmarked) [Example 242]", "values": [
      {"measurement": "IC50", "value": 2.2, "unit": "nM"},
      {"measurement": "Ki", "value": 1.36, "unit": "nM"}
    ]},
    {"compound": "(2S)-[(4-cyclohexylpiperazinyl)carbonylethyl]-2-[3(S)-(4(S)-phenyloxazolidin-2-on-3-yl)-4(R)-(2-phenyleth-1-yl)azetidin-2-on-1-yl]acetic acid N—[(R)-1,2,3,4-tetrahydronaphth-1-yl]amide [Example 236A]", "values": [
      {"measurement": "IC50", "value": 9, "unit": "nM"},
      {"measurement": "Ki", "value": 5.5, "unit": "nM"}
    ]},
    {"compound": "O=C(NCc1ccccc1F)C(CC(=O)N1CCC(N2CCCCC2)CC1)N1C(=O)C(N2C(=O)OCC2c2ccccc2)C1CCc1ccccc1", "note": "(centres unmarked) [Example 677]", "values": [
      {"measurement": "Ki", "value": 3, "unit": "nM"}
    ]},
    {"compound": "O=C(CC[C@@H](C(=O)N[C@@H]1CCCc2ccccc21)N1C(=O)[C@@H](N2C(=O)OC[C@@H]2c2ccccc2)[C@H]1/C=C/c1ccccc1)N[C@@H]1CCN(Cc2ccccc2)C1", "note": "[Example 221AD]", "values": [
      {"measurement": "IC50", "value": "~50", "unit": "nM"}
    ]},
    {"compound": "O=C(CCC(C(=O)NCc1cccc(C(F)(F)F)c1)N1C(=O)C(N2C(=O)OCC2c2ccccc2)C1C=Cc1ccccc1)NCCN1CCCCC1", "note": "(centres unmarked) [Example 87]", "values": [
      {"measurement": "IC50", "value": 15, "unit": "nM"}
    ]},
    {"compound": "O=C(NC1CCCc2ccccc21)C(CCC(=O)N1CCN(C2CCCCC2)CC1)N1C(=O)C(N2C(=O)OCC2c2ccccc2)C1C=Cc1cccc(Cl)c1", "note": "(centres unmarked) [Example 243]", "values": [
      {"measurement": "IC50", "value": 0.5, "unit": "nM"},
      {"measurement": "Ki", "value": 0.3, "unit": "nM"}
    ]},
    {"compound": "O=C(NCc1cccc(OC(F)(F)F)c1)C(CCC(=O)N1CCN(C2CCCCC2)CC1)N1C(=O)C(N2C(=O)OCC2c2ccccc2)C1C=Cc1ccccc1", "note": "(centres unmarked) [Example 172]", "values": [
      {"measurement": "IC50", "value": 4.5, "unit": "nM"},
      {"measurement": "Ki", "value": 2.78, "unit": "nM"}
    ]},
    {"compound": "O=C(NC1CCCc2ccccc21)C(CCC(=O)N1CCN(C2CCCC2)CC1)N1C(=O)C(N2C(=O)OCC2c2ccccc2)C1C=Cc1ccccc1", "note": "(centres unmarked) [Example 241]", "values": [
      {"measurement": "IC50", "value": 2, "unit": "nM"},
      {"measurement": "Ki", "value": 1.24, "unit": "nM"}
    ]},
    {"compound": "O=C(NCc1cccs1)C(CCC(=O)N1CCN(C2CCCCC2)CC1)N1C(=O)C(N2C(=O)OCC2c2ccccc2)C1C=Cc1ccccc1", "note": "(centres unmarked) [Example 213]", "values": [
      {"measurement": "IC50", "value": 0.78, "unit": "nM"},
      {"measurement": "Ki", "value": 0.48, "unit": "nM"}
    ]},
    {"compound": "C[C@@H](NC(=O)[C@H](CCC(=O)N1CCN(C2CCCCC2)CC1)N1C(=O)[C@@H](N2C(=O)OC[C@@H]2c2ccccc2)[C@H]1/C=C/c1ccccc1)c1cccc(C(F)(F)F)c1", "note": "[Example 221F]", "values": [
      {"measurement": "IC50", "value": 1.7, "unit": "nM"},
      {"measurement": "Ki", "value": 1.04, "unit": "nM"}
    ]},
    {"compound": "CC(NC(=O)C(CCC(=O)N1CCN(C2CCCCC2)CC1)N1C(=O)C(N2C(=O)OCC2c2ccccc2)C1C=Cc1ccccc1)c1ccccc1", "note": "(centres unmarked) [Example 206]", "values": [
      {"measurement": "IC50", "value": 1.58, "unit": "nM"},
      {"measurement": "Ki", "value": 0.97, "unit": "nM"}
    ]},
    {"compound": "O=C(NCc1ccccc1Br)C(CC(=O)N1CCC(N2CCCCC2)CC1)N1C(=O)C(N2C(=O)OCC2c2ccccc2)C1CCc1ccccc1", "note": "(centres unmarked) [Example 682]", "values": [
      {"measurement": "Ki", "value": 0.9, "unit": "nM"}
    ]},
    {"compound": "O=C(NCc1cccc(Cl)c1Cl)C(CCC(=O)N1CCN(C2CCCCC2)CC1)N1C(=O)C(N2C(=O)OCC2c2ccccc2)C1C=Cc1ccccc1", "note": "(centres unmarked) [Example 176]", "values": [
      {"measurement": "IC50", "value": 0.61, "unit": "nM"},
      {"measurement": "Ki", "value": 0.38, "unit": "nM"}
    ]},
    {"compound": "CC(NC(=O)C(CC(=O)N1CCC(N2CCCCC2)CC1)N1C(=O)C(N2C(=O)OCC2c2ccccc2)C1CCc1ccc(O)cc1)c1ccccc1", "note": "(centres unmarked) [Example 594]", "values": [
      {"measurement": "Ki", "value": 19, "unit": "nM"}
    ]},
    {"compound": "O=C(NCc1ccccc1)C(CCC(=O)N1CCN(C2CCCCC2)CC1)N1C(=O)C(N2C(=O)OCC2c2ccccc2)C1C=Cc1ccccc1", "note": "(centres unmarked) [Example 191]", "values": [
      {"measurement": "IC50", "value": 2.92, "unit": "nM"},
      {"measurement": "Ki", "value": 1.79, "unit": "nM"}
    ]},
    {"compound": "O=C(NC1CCc2ccccc21)C(CCC(=O)N1CCN(C2CCCCC2)CC1)N1C(=O)C(N2C(=O)OCC2c2ccccc2)C1C=Cc1ccccc1", "note": "(centres unmarked) [Example 221R]", "values": [
      {"measurement": "IC50", "value": 5.13, "unit": "nM"},
      {"measurement": "Ki", "value": 3.14, "unit": "nM"}
    ]},
    {"compound": "CC(NC(=O)C(CC(=O)N1CCC(N2CCCCC2)CC1)N1C(=O)C(N2C(=O)OCC2c2ccccc2)C1CCc1cccc(Br)c1)c1ccccc1", "note": "(centres unmarked) [Example 606]", "values": [
      {"measurement": "IC50", "value": 0.53, "unit": "nM"},
      {"measurement": "Ki", "value": 0.32, "unit": "nM"}
    ]},
    {"compound": "Cc1cccc(CNC(=O)C(CCC(=O)N2CCN(C3CCCCC3)CC2)N2C(=O)C(N3C(=O)OCC3c3ccccc3)C2C=Cc2ccccc2)c1", "note": "(centres unmarked) [Example 193]", "values": [
      {"measurement": "IC50", "value": 1.17, "unit": "nM"},
      {"measurement": "Ki", "value": 0.72, "unit": "nM"}
    ]},
    {"compound": "O=C(C(COCc1ccccc1)N1C(=O)C(N2C(=O)OCC2c2ccccc2)C1C=Cc1ccccc1)N1CCC(CN2CCCCC2)CC1", "note": "(centres unmarked) [Example 232E]", "values": [
      {"measurement": "IC50", "value": 0.28, "unit": "nM"},
      {"measurement": "Ki", "value": 0.17, "unit": "nM"}
    ]},
    {"compound": "CC(NC(=O)C(CC(=O)N1CCC(N2CCCCC2)CC1)N1C(=O)C(N2C(=O)OCC2c2ccccc2)C1CCc1cccc(N)c1)c1ccccc1", "note": "(centres unmarked) [Example 600]", "values": [
      {"measurement": "IC50", "value": 14.4, "unit": "nM"},
      {"measurement": "Ki", "value": 8.8, "unit": "nM"}
    ]},
    {"compound": "O=C(NC(c1ccccc1)C(F)(F)F)C(CC(=O)N1CCC(N2CCCCC2)CC1)N1C(=O)C(N2C(=O)OCC2c2ccccc2)C1CCc1ccccc1", "note": "(centres unmarked) [Example 623]", "values": [
      {"measurement": "Ki", "value": 0.85, "unit": "nM"}
    ]},
    {"compound": "O=C(NCc1ccco1)C(CCC(=O)N1CCN(C2CCCCC2)CC1)N1C(=O)C(N2C(=O)OCC2c2ccccc2)C1C=Cc1ccccc1", "note": "(centres unmarked) [Example 211]", "values": [
      {"measurement": "IC50", "value": 5.37, "unit": "nM"},
      {"measurement": "Ki", "value": 3.29, "unit": "nM"}
    ]},
    {"compound": "O=C(NCc1cc(C(F)(F)F)cc(C(F)(F)F)c1)C(CCC(=O)N1CCN(C2CCCCC2)CC1)N1C(=O)C(N2C(=O)OCC2c2ccccc2)C1C=Cc1ccccc1", "note": "(centres unmarked) [Example 188]", "values": [
      {"measurement": "IC50", "value": 7.26, "unit": "nM"},
      {"measurement": "Ki", "value": 4.45, "unit": "nM"}
    ]},
    {"compound": "O=C(NCc1cc(F)cc(C(F)(F)F)c1)C(CCC(=O)N1CCN(C2CCCCC2)CC1)N1C(=O)C(N2C(=O)OCC2c2ccccc2)C1C=Cc1ccccc1", "note": "(centres unmarked) [Example 179]", "values": [
      {"measurement": "IC50", "value": 0.81, "unit": "nM"},
      {"measurement": "Ki", "value": 0.51, "unit": "nM"}
    ]},
    {"compound": "CN(Cc1cccc(C(F)(F)F)c1)C(=O)C(CC(=O)N1CCC(N2CCCCC2)CC1)N1C(=O)C(N2C(=O)OCC2c2ccccc2)C1C=Cc1cccc(Cl)c1", "note": "(centres unmarked) [Example 247]", "values": [
      {"measurement": "IC50", "value": 0.6, "unit": "nM"},
      {"measurement": "Ki", "value": 0.39, "unit": "nM"}
    ]},
    {"compound": "CC(NC(=O)C(CC(=O)N1CCC(N2CCCCC2)CC1)N1C(=O)C(N2C(=O)OCC2c2ccccc2)C1CCc1cccc(Cl)c1)c1ccccc1", "note": "(centres unmarked) [Example 559]", "values": [
      {"measurement": "IC50", "value": 0.12, "unit": "nM"},
      {"measurement": "Ki", "value": 0.073, "unit": "nM"}
    ]},
    {"compound": "O=C(NCc1cc(Cl)ccc1Cl)C(CCC(=O)N1CCN(C2CCCCC2)CC1)N1C(=O)C(N2C(=O)OCC2c2ccccc2)C1C=Cc1ccccc1", "note": "(centres unmarked) [Example 175]", "values": [
      {"measurement": "IC50", "value": 4.56, "unit": "nM"},
      {"measurement": "Ki", "value": 2.79, "unit": "nM"}
    ]},
    {"compound": "Cc1cccc(CCC2C(N3C(=O)OCC3c3ccccc3)C(=O)N2C(CC(=O)N2CCC(N3CCCCC3)CC2)C(=O)NC(C)c2ccccc2)c1", "note": "(centres unmarked) [Example 778]", "values": [
      {"measurement": "Ki", "value": 0.63, "unit": "nM"}
    ]}
  ]
}
